Test results published in article PMC6876276 (Cell Chemical Biology, 2019).

Biological target: T1, SHMT1 (Homo sapiens, UniProt P34896)
T1 sequence (P34896 2-483): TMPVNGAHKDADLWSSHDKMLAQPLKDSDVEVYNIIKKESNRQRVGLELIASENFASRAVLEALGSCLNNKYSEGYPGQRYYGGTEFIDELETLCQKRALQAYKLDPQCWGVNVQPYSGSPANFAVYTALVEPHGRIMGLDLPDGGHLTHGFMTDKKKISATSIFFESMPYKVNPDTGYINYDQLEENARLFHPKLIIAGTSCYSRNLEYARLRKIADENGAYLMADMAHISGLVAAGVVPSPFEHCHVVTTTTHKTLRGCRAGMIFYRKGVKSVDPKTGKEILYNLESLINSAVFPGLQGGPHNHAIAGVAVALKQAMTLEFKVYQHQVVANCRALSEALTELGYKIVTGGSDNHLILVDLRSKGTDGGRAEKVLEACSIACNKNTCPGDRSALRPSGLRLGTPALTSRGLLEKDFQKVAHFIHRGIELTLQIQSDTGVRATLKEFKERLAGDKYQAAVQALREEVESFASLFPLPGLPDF
Assay: thermal shift assay, SYPRO orange
Type: binding
Settings: 2 μM apo-SHMT1, SEC buffer; covalent internal aldimine (reversible)

**Q.** For `Cc1ncc(COP(=O)(O)O)c(C=O)c1O` [PLP, pyridoxal 5′-phosphate], which melting temperature is on record?
**A.** The melting temperature was “selective increase in melting temperature of apo-SHMT1 upon incubation with increasing PLP amounts”.
